The text below walks through data of patent US12129237B2, “Substituted diaminocarboxamide and diaminocarbonitrile pyrimidines, compositions thereof, and methods of treatment therewith” (SIGNAL PHARMACEUTICALS, LLC, priority 2011, dated 2024).

Structures are written as SMILES.

The IC50 is the concentration needed to halve the response being measured.

This assay deals with T1, JNK1 (Homo sapiens, UniProt P45983).
T1 construct: purchased Carna Biosciences
T1 sequence (P45983 whole entry): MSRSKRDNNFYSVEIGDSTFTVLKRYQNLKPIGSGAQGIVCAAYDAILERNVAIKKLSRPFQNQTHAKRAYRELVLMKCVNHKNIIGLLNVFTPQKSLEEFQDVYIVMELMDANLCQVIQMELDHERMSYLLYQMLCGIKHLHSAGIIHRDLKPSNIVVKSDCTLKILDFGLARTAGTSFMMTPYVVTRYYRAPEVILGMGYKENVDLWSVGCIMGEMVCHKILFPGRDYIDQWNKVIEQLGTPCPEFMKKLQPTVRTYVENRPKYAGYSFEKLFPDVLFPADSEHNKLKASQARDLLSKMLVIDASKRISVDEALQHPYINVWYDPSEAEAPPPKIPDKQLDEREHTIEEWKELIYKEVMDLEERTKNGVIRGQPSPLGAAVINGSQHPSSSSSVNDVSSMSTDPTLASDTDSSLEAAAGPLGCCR
The assay is described as follows: JNK1 biochemical assays (one or more of: time resolved fluorescence, Z'-LYTE Cascade, radioactive). As to conditions: one or more of the JNK1 biochemical assays; read-out: Act. Level (JNK1 IC50 activity level).
`C[C@@H]1CC[C@@H](Nc2nc(N[C@H](C)C3CC3)ncc2C(N)=O)C[C@H]1O` [Example 394, 2-((R)-1-cyclopropylethylamino)-4-((1R,3R,4R)-3-hydroxy-4-methylcyclohexylamino)pyrimidine-5-carboxamide]: the IC50 was under 0.2 µM.
For the molecule `C[C@H](Nc1ncc(C(N)=O)c(N[C@@H]2CC[C@@H](C)[C@H](O)C2)n1)C1CC1` [Example 395, 2-((S)-1-cyclopropylethylamino)-4-((1R,3R,4R)-3-hydroxy-4-methylcyclohexylamino)pyrimidine-5-carboxamide], the IC50 was under 0.2 µM.
`C[C@@H]1CC[C@@H](Nc2nc(NC34CC(C)(C3)C4)ncc2C(N)=O)C[C@H]1O` [Example 396, 4-((1R,3R,4R)-3-hydroxy-4-methylcyclohexylamino)-2-(3-methylbicyclo[1.1.1]pentan-1-ylamino)pyrimidine-5-carboxamide]: the IC50 is under 0.2 µM.
As to `C[C@@H]1CC[C@@H](Nc2nc(NC(C)(C)C3CC3)ncc2C(N)=O)C[C@H]1O` [Example 397, 2-(2-cyclopropylpropan-2-ylamino)-4-((1R,3R,4R)-3-hydroxy-4-methylcyclohexylamino)pyrimidine-5-carboxamide], the IC50 is under 0.2 µM.
With `CC[C@H](C)Nc1ncc(C(N)=O)c(N[C@@H]2CC[C@@H](C)[C@H](O)C2)n1` [Example 398, 2-(sec-butylamino)-4-((1R,3R,4R)-3-hydroxy-4-methylcyclohexylamino)pyrimidine-5-carboxamide], the IC50 is under 0.2 µM.
`CC(C)(C)Nc1nc(NC23CCC(O)(CC2)C3)ncc1C(N)=O` [Example 399, 4-(tert-butylamino)-2-(4-hydroxybicyclo[2.2.1]heptan-1-ylamino)pyrimidine-5-carboxamide]: the IC50 was under 0.2 µM.
To `CC1(Nc2nc(N[C@H]3CC[C@H](OC4CC4)CC3)ncc2C(N)=O)CCC1` [Example 400, 2-((1r,4r)-4-cyclopropoxycyclohexylamino)-4-(1-methylcyclobutylamino)pyrimidine-5-carboxamide] belongs under 0.2 µM; to `CCO[C@H]1CC[C@H](Nc2ncc(C(N)=O)c(NC3(C)CCC3)n2)CC1` [Example 401, 2-((1r,4r)-4-ethoxycyclohexylamino)-4-(1-methylcyclobutylamino)pyrimidine-5-carboxamide], under 0.2 µM; to `CO[C@H]1CC[C@H](Nc2ncc(C(N)=O)c(NC3(C)CCC3)n2)CC1` [Example 402], under 0.2 µM.
The value for `CC1(Nc2nc(N[C@H]3CCCOC3)ncc2C(N)=O)CCC1` [Example 403, (S)-4-(1-methylcyclobutylamino)-2-(tetrahydro-2H-pyran-3-ylamino)pyrimidine-5-carboxamide] was under 0.2 µM; that for `CC1(Nc2nc(N[C@@H]3CCC[C@H](O)C3)ncc2C(N)=O)CCC1` [Example 404, 2-((1R,3S)-3-hydroxycyclohexylamino)-4-(1-methylcyclobutylamino)pyrimidine-5-carboxamide] was under 0.2 µM; that for `NC(=O)c1cnc(N[C@H]2CCCOC2)nc1NC12CC(C1)C2` [Example 405, (S)-4-(bicyclo[1.1.1]pentan-1-ylamino)-2-(tetrahydro-2H-pyran-3-ylamino)pyrimidine-5-carboxamide] was under 0.2 µM.
To `NC(=O)c1cnc(NC2CCOCC2)nc1NC12CC(C1)C2` [Example 407, 4-(bicyclo[1.1.1]pentan-1-ylamino)-2-(tetrahydro-2H-pyran-4-ylamino)pyrimidine-5-carboxamide] belongs under 0.2 µM; to `C[C@@H](Nc1nc(NC23CCC(O)(CC2)CC3)ncc1C(N)=O)C1CC1` [Example 408, (R)-4-(1-cyclopropylethylamino)-2-(4-hydroxybicyclo[2.2.2]octan-1-ylamino)pyrimidine-5-carboxamide], under 0.2 µM.
`C[C@@H](Nc1nc(N[C@H]2CC[C@H](OCC(F)(F)F)CC2)ncc1C(N)=O)C1CC1` [Example 409, 4-((R)-1-cyclopropylethylamino)-2-((1r,4R)-4-(2,2,2-trifluoroethoxy)cyclohexylamino)pyrimidine-5-carboxamide]: the IC50 was under 0.2 µM.
The value for `C[C@@H](Nc1nc(N[C@H]2CC[C@H](OC3CC3)CC2)ncc1C(N)=O)C1CC1` [Example 410, 2-((1r,4R)-4-cyclopropoxycyclohexylamino)-4-((R)-1-cyclopropylethylamino)pyrimidine-5-carboxamide] was under 0.2 µM.
To `CCO[C@H]1CC[C@H](Nc2ncc(C(N)=O)c(N[C@H](C)C3CC3)n2)CC1` [Example 411, 4-((R)-1-cyclopropylethylamino)-2-((1r,4R)-4-ethoxycyclohexylamino)pyrimidine-5-carboxamide] belongs under 0.2 µM; to `CC1(Nc2nc(NC34CCC(O)(CC3)CC4)ncc2C(N)=O)CCC1` [Example 412, 2-(4-hydroxybicyclo[2.2.2]octan-1-ylamino)-4-(1-methylcyclobutylamino)pyrimidine-5-carboxamide], under 0.2 µM; to `CC1(Nc2nc(NC3CCOCC3)ncc2C(N)=O)CCC1` [Example 413, 4-(1-methylcyclobutylamino)-2-(tetrahydro-2H-pyran-4-ylamino)pyrimidine-5-carboxamide], under 0.2 µM.
For the molecule `CN(C)C(=O)[C@H]1CC[C@H](Nc2ncc(C(N)=O)c(NC3(C)CCC3)n2)CC1` [Example 414, 2-((1r,4r)-4-(dimethylcarbamoyl)cyclohexylamino)-4-(1-methylcyclobutylamino)pyrimidine-5-carboxamide], the IC50 was under 0.2 µM.
Regarding `CC1(Nc2nc(N[C@H]3CC[C@H](OCC(F)(F)F)CC3)ncc2C(N)=O)CCC1` [Example 415, 4-(1-methylcyclobutylamino)-2-((1r,4r)-4-(2,2,2-trifluoroethoxy)cyclohexylamino)pyrimidine-5-carboxamide], the IC50 is under 0.2 µM.
Consider `CC1(Nc2nc(N[C@H]3CC[C@H](OC(F)F)CC3)ncc2C(N)=O)CCC1` [Example 416, 2-((1r,4r)-4-(difluoromethoxy)cyclohexylamino)-4-(1-methylcyclobutylamino)pyrimidine-5-carboxamide], for which the IC50 was under 0.2 µM.
Take `NC(=O)c1cnc(NC23CCC(O)(CC2)CC3)nc1NC12CC(C1)C2` [Example 417, 4-(bicyclo[1.1.1]pentan-1-ylamino)-2-(4-hydroxybicyclo[2.2.2]octan-1-ylamino)pyrimidine-5-carboxamide]: the IC50 is under 0.2 µM.
Consider `CN(C)C(=O)[C@H]1CC[C@H](Nc2ncc(C(N)=O)c(NC34CC(C3)C4)n2)CC1` [Example 418, 4-(bicyclo[1.1.1]pentan-1-ylamino)-2-((1r,4r)-4-(dimethylcarbamoyl)cyclohexylamino)pyrimidine-5-carboxamide], for which the IC50 is under 0.2 µM.
Turning to `NC(=O)c1cnc(N[C@H]2CC[C@H](OCC(F)(F)F)CC2)nc1NC12CC(C1)C2` [Example 419, 4-(bicyclo[1.1.1]pentan-1-ylamino)-2-((1r,4r)-4-(2,2,2-trifluoroethoxy)cyclohexylamino)pyrimidine-5-carboxamide], the IC50 was under 0.2 µM.
In the case of `NC(=O)c1cnc(N[C@H]2CC[C@H](OC(F)F)CC2)nc1NC12CC(C1)C2` [Example 420, 4-(bicyclo[1.1.1]pentan-1-ylamino)-2-((1r,4r)-4-(difluoromethoxy)cyclohexylamino)pyrimidine-5-carboxamide], the IC50 is under 0.2 µM.
Regarding `CO[C@H]1CC[C@H](Nc2ncc(C(N)=O)c(N[C@H](C)C3CC3)n2)CC1` [Example 421, 4-((R)-1-cyclopropylethylamino)-2-((1r,4R)-4-methoxycyclohexylamino)pyrimidine-5-carboxamide], the IC50 is under 0.2 µM.
The value for `C[C@@H](Nc1nc(N[C@H]2CCCOC2)ncc1C(N)=O)C1CC1` [Example 422, 4-((R)-1-cyclopropylethylamino)-2-((S)-tetrahydro-2H-pyran-3-ylamino)pyrimidine-5-carboxamide] was under 0.2 µM; that for `C[C@@H](Nc1nc(N[C@@H]2CCC[C@H](O)C2)ncc1C(N)=O)C1CC1` [Example 423, 4-((R)-1-cyclopropylethylamino)-2-((1R,3S)-3-hydroxycyclohexylamino)pyrimidine-5-carboxamide] was under 0.2 µM.
The value for `C[C@@H](Nc1nc(NC2CCOCC2)ncc1C(N)=O)C1CC1` [Example 424, (R)-4-(1-cyclopropylethylamino)-2-(tetrahydro-2H-pyran-4-ylamino)pyrimidine-5-carboxamide] was under 0.2 µM; that for `C[C@@H](Nc1nc(N[C@H]2CC[C@H](C(=O)N(C)C)CC2)ncc1C(N)=O)C1CC1` [Example 425, 4-((R)-1-cyclopropylethylamino)-2-((1r,4R)-4-(dimethylcarbamoyl)cyclohexylamino)pyrimidine-5-carboxamide] was under 0.2 µM.
As for `C[C@@H](Nc1nc(N[C@H]2CC[C@H](OC(F)F)CC2)ncc1C(N)=O)C1CC1` [Example 426, 4-((R)-1-cyclopropylethylamino)-2-((1r,4R)-4-(difluoromethoxy)cyclohexylamino)pyrimidine-5-carboxamide], the IC50 is under 0.2 µM.
For `CC1(C)CCC(Nc2nc(NC34CC(C3)C4)ncc2C(N)=O)CC1O` (stereo not drawn) [Example 427, 2-(bicyclo[1.1.1]pentan-1-ylamino)-4-(3-hydroxy-4,4-dimethylcyclohexylamino)pyrimidine-5-carboxamide], the IC50 is 0.2 to 0.8 µM.
`CC1(C)CCC(Nc2nc(NC3CCC3)ncc2C(N)=O)CC1O` (stereo not drawn) [Example 428, 2-(cyclobutylamino)-4-(3-hydroxy-4,4-dimethylcyclohexylamino)pyrimidine-5-carboxamide]: the IC50 was under 0.2 µM.
Take `CC1(C)CCC(Nc2nc(NC3CCC3)ncc2C(N)=O)CC1O` (stereo not drawn) [Example 429, 2-(cyclobutylamino)-4-(3-hydroxy-4,4-dimethylcyclohexylamino)pyrimidine-5-carboxamide]: the IC50 is under 0.2 µM.
To `CC1(Nc2ncc(C(N)=O)c(NC3CCC(C)(C)C(O)C3)n2)CC1` (stereo not drawn) [Example 430, 4-(3-hydroxy-4,4-dimethylcyclohexylamino)-2-(1-methylcyclopropylamino)pyrimidine-5-carboxamide] belongs under 0.2 µM.
